For one data set, the system named is iAMs. Description: H2O2-induced cell death assay in iAMs (Toxilight), also with LY294002.
Another data set has as its system HCFs. Description: In vitro collagen expression: COL3A1 mRNA in HCFs stimulated with TGF-β1. The data set is classed as cell-based, human. The protocol: HCFs were seeded at a density of 1.5 ×10^5 cells/well in doxycycline-free medium in 12-well plates (Greiner Bio-One, 665180) and incubated overnight. […] Compounds were pre-incubated for 10 min before addition of TGF-β1.
RNA was extracted using Nucleospin RNA XS (Macherey-Nagel, 740902.50) according to the manufacturer’s instructions. For cDNA synthesis, total RNA was added to a mixture containing buffer with random hexamers and reverse transcriptase enzyme (TaqMan reverse transcription reagents, Applied biosystems, N8080234) after which samples were incubated for 10 min at 25 °C, 30 min at 48 °C, and 5 min at 95 °C. RT-qPCR was performed on QuantStudio 3 Real-time PCR system (Applied Biosystems) using Taqman Universal PCR Master Mix (Applied Biosystems, 4304437) and Taqman primers according to the manufacturer’s instructions. Settings were as follows: […] followed by 10 min at 95 °C, 40 cycles (45 cycles for ERBB4) of denaturation at 95 °C for 15 s, and 1 min at 60 °C. All reactions were run in duplicate, and all data were normalized against housekeeping genes glyceraldehyde-3-phosphate dehydrogenase (GAPDH), beta-actin (ACTB), or phosphoglycerate kinase 1 (PGK1). Expression levels were calculated using the comparative cycle method and expressed as fold change (FC) to appropriate controls. The following TaqMan primers were used (Thermo Fisher Scientific): GAPDH (Hs02758991_g1, Mm99999915_g1 and Rn01775763_g1), PGK1 (Hs99999906_m1), ID2 (Hs04187239_m1), BMPR1B (Hs01010965_m1), CACNA2D4 (Hs00297782_m1), DUSP2 (Hs00358879_m1), NR4A1 (Hs00374226_m1), SGK1 (Hs00178612_m1), COL1A1 (Mm00801666_g1), COL3A1 (Hs00943809_m1 and Mm00802305_g1), ERBB4 (Hs00955525_m1 and Rn00572447_m1), ACTB (Mm02619580_g1) and ANP (Mm01255747_g1).

Another data set relates to Erbb4-null mice. As to the kind of experiment: Survival of Erbb4-null mice under AngII treatment. The data set is classed as in vivo, mouse. Further details: key to Survival probability in AngII-treated Erbb4-null mice: 0: Survived until end of experiment; 1: Died before the end of the experiment. The text has this:
Floxed Erbb4 mice (Erbb4^f/f; C57BL/6N; 129-Erbb4tm1Fej/Mmucd, MMRRC, #010439-UCD) were crossed with CAGGCre-ER^TM mice (Jackson Laboratory, 004682) containing the Tg(CAG-cre/Esr1*)5Amc transgene that expresses Cre recombinase under the control of a chicken beta actin promoter/enhancer coupled to the human cytomegalovirus immediate-early gene enhancer, resulting in expression of tamoxifen-inducible Cre-ERT in most cell types. To induce Cre recombinase-mediated deletion of Erbb4, eleven-week-old female and male iCAGGCre-ER^TM/Erbb4^f/f mice were intraperitoneally injected with tamoxifen (Merck, T5648; 10 mg/kg; in corn oil) daily for 5 consecutive days.
Statistical analysis was performed using GraphPad Prism version 10. Data are presented as the mean value of biological replicates (unless stated otherwise) ± SD. Data was checked for normality using the Shapiro–Wilk normality test. […]
Supplementary Figure 6. […] (a) Representative images of Masson’s trichrome staining of AngII-induced myocardial fibrosis following treatment with NA-1 and corresponding graphs showing the quantitation for total and perivascular fibrosis in male mice (n=5 male mice in Ctrl and AngII/Veh group, n=4 male mice in AngII/NA-1 group). […]

Several values for one entry are separate records, joined by “and”; a condition that tells them apart may be missing. Equal entries are not always repeated.

Protocol for iAMs: Subsequently, H2O2 (100 µM; Merck, H1009) was added and the cells were incubated for 4 h at 37 °C. All wells contained DMSO at a final concentration of 0.9%. […] After incubation at RT for 5 min, luminescence was measured using the Luminoskan Ascent.

As to `OO` [Compound H2O2, hydrogen peroxide, reference compound], the “total cell death of iAMs” value with iAMs (100 µM H2O2) came to 62%. In the data set with iAMs (H2O2 vs Vehicle, single replicates), the “total cell death of iAMs, validation H2O2” value was 48.19 and 54.13 and 68.52 and 60.96 and 64.53 and 71.34 and 65.79 and 69.72 and 69.16 and 66.75 and 64.62 and 50.66 and 53.52 and 64.15.

On to `O=c1cc(N2CCOCC2)oc2c(-c3ccccc3)cccc12` [LY294002, reference compound], for which the “total cell death of iAMs” value in the data set with iAMs (H2O2/Veh + LY294002 (20 µM), single replicates) is 32.812 and 23.1247 and 24.542 and 32.4283; in the data set with iAMs (Veh + LY294002 (20 µM), no H2O2, single replicates), 4.366 and 3.706 and 3.828 and 4.745. The “effect of LY294002 pretreatment on pro-survival effect of EF-1 (in words)” value in the data set with iAMs (iAMs treated with H2O2) was “blocked the pro-survival effect of EF-1”.

Regarding “transforming growth factor β1 [TGF-β1, reference compound]”, the “increase of COL3A1 mRNA levels in HCFs” value with HCFs (TGF-β1 10 ng/mL) was 36%. Further, the “COL3A1 mRNA expression (FC), HCF validation TGFβ” value in the data set on HCFs (TGFβ vs Vehicle, single replicates) is 1.323 and 1.4 and 1.364.

Consider “angiotensin II (DRVYIHPF; Angiotensin-2; UniProt P01019 25-32, looked up) [AngII, inducer of hypertrophy in iAMs and of myocardial fibrosis in mice]”, for which, in the data set on Erbb4-null mice (1000 ng/kg AngII, Erbb4-null mice, individual animals), the “Survival probability in AngII-treated Erbb4-null mice” value is 1 and 0. Besides, the “mortality in Erbb4-null mice” value with Erbb4-null mice (AngII dose of 1000 ng/kg/day) came out at 80%.

(Values after publication PMC11724075, “Small-molecule-induced ERBB4 activation to treat heart failure” (Nature Communications, 2025).)
